Several values for one entry are separate records, joined by “and”; a condition that tells them apart may be missing. Equal entries are not always repeated. Entries after “also recorded” stand apart in the source; their conditions may differ. Structures can show the parent of a compound that is named as a salt. Where two headings read alike, the source gives them in different places.
Columns and labels:
[1] = test system: CEM cells; experiment: Cytotoxicity, ID50 and ID90 by trypan blue staining; format: cell-based; conditions: for IC90 / IC50: Homo sapiens, CCRF-CEM; for IC90: 48 h; for IC50: 48 hr, NT = Non-toxic to CEM cells
Description: CEM cells, a human T-cell lymphoblastoid leukemia cell line (American Type Culture Collection, Rockville, Md.), were cultured in suspension (Iscove's Dulbecco's Medium) supplemented with 10% heat inactivated fetal bovine serum (FBS), penicillin (250 μ/ml) and streptomycin (250 μl/ml). Cells were incubated at 37° C. in 5% C02 and only those cells in exponential growth were used.
CEM cells were seeded into 96-well microplates (Falcon, Oxnard, Calif.) at 10^5 cell per well, then treated with 0-10 μg/ml of the candidate compounds for 48 h at 37° C. yielding a total volume of 250 μ/well. Cell viability was assessed by trypan blue staining. ID50 and ID90 were defined as the concentration killing 50% or 90% of the cells in comparison with untreated controls, and calculated by non-linear regression analysis.
Cells in suspension culture were seeded into 96-well microplates (Falcon, Oxnard, Calif.) at 10^5 cell per well, followed, by treatment with 0-10 μg/ml of the candidate compounds for 48 hr at 37° C. with total volume of 250 μl per well. Cell viability was assessed by trypan blue exclusion.
The ID50 and ID90 was determined in duplicate in every set of experiments, and each experiment was repeated 3 times under identical conditions. ID50 and ID90 were defined as drug concentrations that induced 50% or 90% cellular death in comparison with untreated controls and calculated by non-linear regression analysis. […]

[2] = test system: CEM cells; experiment: Morphology by microscopy (mitotic arrest, apoptosis, necrosis); format: cell-based, human; conditions: for Activities of inducing Apoptosis / Activities of inducing Mitotic block / Activities of inducing Necrosis / morphological effect on leukemic cells: CEM leukemic cells; for Activities of inducing Apoptosis / Activities of inducing Mitotic block / Activities of inducing Necrosis: % of affected cells; for Mitotic arrest, %: % of mitotic cells after 24 h incubation, optical microscopy
Description: Slides for examination of mitosis were prepared on a cytospin centrifuge (Shandon Southern Products Ltd, England ) at 700 g for 5 min. Slides were air dried, fixed in methanol and stained with Giemsa (Harleco, N.J.) at room temperature for 15 min. Cells in mitotic arrest were recognized by the disappearance of nuclear membrane and by the appearance of chromosomal scattering throughout the cytoplasm (reference 1). The % of mitotic cells were counted after 24 h incubation using optical microscopy. Apoptotic cells were identified using common criteria, i.e., shrinkage in cell size, chromatin condensation and fragmentation of the nucleus into discrete masses (reference 2).
Cell samples on slides were prepared by a Cytospin centrifuge (Shandon Southern Products Ltd, England) at 700 g for 5 min. The slides were air dried, fixed in methanol and stained with Giemsa (Harleco, N.J.) at room temperature for 15 min. Alterations of nuclei, membranes and morphological features were observed by light microscopy. Cells in mitotic phase were recognized by the appearance of their chromosomes dispersed in the cytoplasm, and by the disappearance of nuclear membrane. Apoptotic-cells were identified using previously defined criteria, i.e., shrinkage in cell size, chromatin condensation and fragmentation of the nucleus into discrete masses (references 2 & 3). Necrotic cells were differentiated from apoptotic cells by observing swollen cytoplasm and the disappearance of cell membrane prior to the destruction of the nucleus.

[3] = test system: CEM cells; experiment: DNA fragmentation by electrophoresis (apoptosis); format: cell-based, human; conditions: 48 hours, compound 8 0.025 μg/ml, compound 9 0.005 μg/ml, fluorine compound 5.0 μg/ml, chlorine compound 0.75 μg/ml
Description: DNA fragmentation was determined by a method reported previously (reference 3). Briefly, cells were treated in 1 ml lysis buffer (0.01M Tris. HCL pH 8.0, 0.01M NaCl, 0.01M EDTA pH 8.0 and 5% sodium dodecyl sulfate) containing 1 μg/ml protease K for 1 h at 50° C. The resulting products were extracted with phenol and chloroform:isoamylalcohol (24:1, v/v), and precipitated with ethanol followed by centrifugation at 7800 g (Sorvall RC-5B Du Pont, Newtown, Conn.). The ethanol was removed and the dry pellets of nucleic acid were resuspended in 10 mM Tris-HCL/1 mM EDTA solution. When DNA content was determined spectrophotometrically all samples had A260/A280 ratio≧2. The DNA samples were then treated with RNase (Sigma, St. Louis, Mo.) at a final concentration of 0.1 μg/μl for 20 min at 37° C. before gel loading. Approximately 4 μg size DNA aliquots were loaded onto horizontal agarose gel (1.5%) prepared with 1% ethidium bromide. Electrophoresis was performed at 75 volts for 2 h and the DNA patterns were visualized with UV light.
[…] After incubation, cells were washed twice in PBS. Cell pellets were resuspended in drug-free medium and incubated for 48 hr at 37° C. Cell viability, morphology, mitotic spindles, cell cycle distribution and apoptosis were determined 24 hr and 48 hr post pulse exposure.
Soluble DNA from cells was extracted by the method reported previously (14). Briefly, after washing with PBS, cells were treated in 1 ml lysis buffer (0.01 M Tris.HCL pH 8.0, 0.01 M NaCl, 0.01M EDTA pH 8.0 and 5% sodium dodecyl sulfate) containing 1 μg/ml proteinase K for 1 hr at 50° C. The resulting products were extracted with phenol and chloroform:isoamylalcohol (24:1, v/v), and precipitated with ethanol followed by centrifugation at 7800 g (Sorvall RC-5B Du Pont, Newtown, Conn.). The ethanol was removed and the dry pellet of nucleic acid was resuspended in 10 mM Tris-HCL/1 mM EDTA solution. DNA content was determined spectrophotometrically by measuring absorption at 260 nm (A260). All samples, had A260/A280≧2. The DNA samples were then treated with RNase (Sigma, St. Louis, Mo.) at a final concentration of 0.1 μg/l for 20 min at 37° C. before gel loading. The DNA sample (4 μg) was analyzed in 1.5% horizontal agarose gel prepared with 1% ethidium bromide. Electrophoresis was performed at 75 volts for 2 hours and the DNA migration was visualized under UV light.

[4] = test system: Purified tubulin; experiment: Inhibition of microtubule assembly by spectrophotometry, cell free system; format: biochemical, calf; conditions: cell free tubulin, up to 10 μg/ml
Description: Purified tubulin was purchased from Sigma (St. Louis, Mo.). The effects of compounds 6, 7, 8, 9, paclitaxel and vinblastine on the microtubule assembly-disassembly process were determined using conditions recommended by the vendor. For assembly inhibition, 100 μl tubulin solution (500-600 μg protein/ml) was mixed gently with 400 μl reaction buffer containing 0.1 M MES (2-[N-morpholino]ethane sulfonic acid), 1 mM EGTA ([…]-N,N,N′,N′-tetraacetic acid), 0.5 mM MgCl2, 0.1 mM EDTA and 2.5 M gycerol at 37° C. Compounds 6, 7, 8, and 9 were next added to each sample at final concentrations of 10, 10, 1 and 1 μg/ml, respectively. After adding GTP to each sample to a final concentration of 1 mM, the microtubule assembly process was monitored by measuring the change of absorbance (OD) at 350 nm on a spectrophotometer (Ultrospec III, Pharmacia LKB, Uppsala, Sweden). A completed assembly process was observed within 40 min at room temperature. For disassembly inhibition, compounds 6, 7, 8, and 9 were added, at the above concentrations, to covets with repolymerized microtubules as described above, and incubated in melting ice. Changes of absorbance (OD) were monitored at 350 nm for 30 min until the OD values in the controls returned to the starting level, i.e., when the assembly-disassembly cycle was completed.
Purified tubulin from calf brain was purchased from Sigma (St. Louis, Mo.). The effects of 3-BAABU (3-bromoacetoamido, benzoylurea) on the microtubule assembly-disassembly process were determined using the conditions recommended by the vendor. For assembly inhibition, 100 μl tubulin solution (500-600 μg protein/ml) was mixed gently with 400 μl reaction buffer containing 0.1 M MES, 1 mM EGTA, 0.5 mM MgCl2, 0.1 mM EDTA and 2.5 M glycerol at 37° C. 3-BAABU, paclitaxel or vinblastine were then added to each sample cuvet at final concentrations of 3.3, 23 or 22 μM, respectively. After adding GTP to each sample to a final concentration of 1 mM, the microtubule assembly process was monitored by measuring the change of absorbance (OD) every 5 min at 350 nm on a spectrophotometer (Ultrospec III, Pharmacia LKB, Uppsala, Sweden). A completed assembly process was observed within 40 min at room temperature. For disassembly inhibition, 3-BAABU (3.3 μM), paclitaxel (23 μM) or vinblastine (22 μM) was added to a cuvet with repolymerized microtubules according to the method described above, and incubated in melting ice. Changes of absorbance (OD) were monitored at 350 nm for 30 min until the OD values in the controls returned to the starting level, i.e., completion of the assembly-disassembly cycle. Solvent solutions were used as control and had no effect in either the assembly or disassembly process.

[5] = test system: CEM cells; experiment: Cell cycle analysis by flow cytometry; format: cell-based, human; conditions: 8 h treatment, compound 6 2.5 μg/ml, compound 8 0.025 μg/ml, compound 9 0.005 μg/ml
[6] = test system: P338 leukemia lymphoma cells; experiment: Survival and ED50 in mice implanted i.p. with P338 lymphoma; format: in vivo, male C57 BL/6JX mice
Description: FIG. 9 is a plot graph of the survival rate of male C57 BL/6JX mice implanted (i.p.) with P338 lymphoma, from 10 to 40 days after implantation. Two groups were used for the study: a control group of ten and a test group of ten that were treated with 20 mg/kg, (i.p.) of compound 8 at 2 and 8 days post-implantation.
(§1) The in vivo efficacy of 3-BAABU and 3-IAABU of the present invention was asssessed in a murine model, along with known anti-tubule agents, vinblastine and paclitaxel, as a comparative standard. Approximately 10^6 P338 leukemia lymphoma cells/mouse were implanted intra-peritoneal (i.p.) into male C57 BL/6JX mice (Jackson Laboratories, N.Y.). On days 2 and 8 post-implantation, drugs were administrated i.p. at the following concentration ranges: 3-BAABU from 16.6 to 116 μmole/kg, 3-IAABU from 14.4 to 101 μmole/kg, vinblastine from 2.2 to 20 μmole/kg and paclitaxel from 28 to 57 μmole/kg.
(§2) Both control and treated animals were examined for ascitic tumor burden daily for 35 days. […] Therapeutic index was defined as the ratio of LD50 (lethal dose) to ED50 (effective dose).

[7] = LD50 (lethal dose) in mice; conditions: mice, i.p.
Description: as §1, §2

[8] = CEM cells, concentration killing 90% of the cells, read-out: ID90 (the source's name)

| Molecule | Activities of inducing Apoptosis [2] | Activities of inducing Mitotic block [2] | Activities of inducing Necrosis [2] | IC90 [1, 8] | Mitotic arrest, % ([2]; CEM cells) | other results |
| --- | --- | --- | --- | --- | --- | --- |
| 3-bromopropionylamino benzoylurea [Compound 3-BPABU] | − (−:<10%) | − (−:<10%) | − (−:<10%) | – | – | cytotoxic activity (ID50 level) compared with 3-BAABU ([1]; CEM leukemic cells): cytotoxic activity was eliminated |
| NC(=O)NC(=O)c1ccc(NC(=O)CI)cc1 [9 (4-position), 4-iodoacetoamido, benzoylurea] | – | – | – | 0.04 µg/mL and 112 nM | <10% | – |
| NC(=O)NC(=O)c1ccc(NC(=O)CBr)cc1 [Compound 4-BAABU, 4-bromoacetylamino benzoylurea] | − (−:<10%) | − (−:<10%) | ++++ (++++: >75%) | 0.15 µg/mL and 497 nM | <10% | IC50 ([1]; CEM leukemic cells): 230 nM; morphological effect on leukemic cells [2]: necrotic cell death |
| NC(=O)NC(=O)c1cccc(NC(=O)CF)c1 [Compound 6, 3-Fluoroacetoamido, benzoylurea] | – | – | – | – | <10% | IC90 ([1]; read-out: ID90): > 2.5 µg/mL and > 10 µM; cytotoxicity against human leukemic cells (CEM) ([1]; at a concentration as high as 10 μM): no cytotoxicity; mitotic arrest (blocking) effect, morphological appearance ([2]; CEM cells, 24 h, compound 8 at 0.025 μg/ml, compound 9 at 0.005 μg/ml): failed to induce mitotic arrest; interference with the cell cycle ([2]; CEM cells, after 24 hours treatment, 2.5 μg/ml): virtually no interference; apoptosis, DNA fragmentation on gel electrophoresis [3]: did not induce apoptosis; effect on microtubule assembly [4]: no effect; shift of the cell population from G0/G1 (2N) to G2/M (4N), DNA profile [5]: undetectable change; also recorded: identical to that of the untreated control |
| CCOC(=O)c1cccc(NC(=O)CCl)c1 [Compound 10, Ethyl-3-chloroacetoamido, benzoate] | – | – | – | 0.82 µg/mL and 3.39 µM | <10% | – |
| CCOC(=O)c1cccc(NC(=O)CBr)c1 [Compound 11, Ethyl-3-bromoacetoamido, benzoate] | ++++ (++++: >75%) | − (−:<10%) | − (−:<10%) | 0.18 µg/mL and 740 nM | <10% | fold increase of ID50 relative to 3-BAABU ([1]; CEM leukemic cells): 10 fold; IC50 ([1]; CEM leukemic cells): 590 nM; morphological effect on leukemic cells [2]: caused apoptosis |
| CC[C@]1(O)C[C@@H]2CN(CCc3c([nH]c4ccccc34)[C@@](C(=O)OC)(c3cc4c(cc3OC)N(C)[C@H]3[C@@](O)(C(=O)OC)[C@H](OC(C)=O)[C@]5(CC)C=CCN6CC[C@]43[C@@H]65)C2)C1 [Vinblastine, vinblastine sulfate] | – | – | – | – | – | Survival IL % ([6]; P338 Lymphoma (i.p.), 2 mg/kg ip on days 2 & 8): 21%; Survival Mean ± SD ([6]; P338 Lymphoma (i.p.), 2 mg/kg ip on days 2 & 8, control 15.1 ± 2.3): 18.2 ± 6.3; ED50 ([6]; P338 leukemia lymphoma i.p. in mice, drug i.p. on days 2 and 8): 4.5 µmol/kg; LD50 [7]: 9.2 µmol/kg |

Source: patent US6590123B2, “Aminobenzoic acid derivatives having anti-tumorigenic activity, methods of making and using the same” (Mount Sinai School of Medicine of New York University, priority 1998, dated 2003)
